# Measurements reported in patent US9333210B2, “Medicine composition containing vitamin D and metformin” (GUANGDONG TAIHE MEDICINE SCIENCE & TECHNOLOGY CO., LTD, priority 2011, dated 2016).
# Where a name gives a salt, the structure may show the parent alone.
# How the values were obtained:
# [1] = system: Wistar rats with dimethyl hydrazine-induced colorectal cancer; assay: Aberrant crypt foci (ACF) count in dimethyl hydrazine-induced colorectal cancer rats (Example 1); format: in vivo; settings: for ACF AC = 1 / ACF AC = 2 / ACF AC = 3 / ACF AC ≧ 4 / The total number of ACF: DMH rats, week 18; for inhibitory effect on ACF, trend with dose: low, medium, high dose groups, end of week 18
# Source text: (§1) Wistar rats with dimethyl hydrazine-induced colorectal cancer were used as the model to study the chemoprevention by the combined administration of vitamin D3 and metformin hydrochloride for colorectal cancer and the effect on colorectal cancer.
# (§2) Experimental animals were randomly divided into 11 groups (each group having 10), including blank control group, model control group, low, medium and high dose groups of vitamin D3, low, medium and high dose groups of metformin, and three groups of different doses of vitamin D3 in combination with metformin. Except for the blank control group, other groups were subcutaneously injected with dimethyl hydrazine once a week respectively for 18 weeks, to induce colorectal cancer model. Dimethylhydrazine was dissolved in sodium chloride injection, and into the solution, 5% NaOH solution was added to adjust pH to 6.5-7.0, thereby obtaining a 20 mg/ml solution. The resulting solution was filtered through 0.22 μm membrane, and prepared extemporaneously.
# (§3) Vitamin D3 was prepared into 10-100 U/ml solution by using soybean oil, and intragastrically administrated, once a day. Metformin was prepare into 10-100 mg/ml solution, and administrated intragastrically, once a day. The above drugs were administrated from day 0.
# (§4) All the animals were sacrificed at the end of 18th weeks after administration. Body weights were recorded once a week during the experiment, and the administrated dose was calculated based on the body weight. The animals that died during the experiment were dissected and observed.
# (§5) 3.2.2 The large intestine was separated immediately after the animals were sacrificed, the contents of the intestine were washed away with saline, and colorectal tumors were visually observed to calculate the number of tumors. The entire colon was paved between two layers of filter paper, placed in 10% neutral formalin and fixed for 24-48 h. The fixed large intestine tissue was put into 0.2% methylene blue and stained for 10 s. The aberrant crypt foci (ACF) of the whole large intestine were immediately observed under an optical microscope, and the number of the aberrant crypt in foci was counted respectively as one, two, three and four as well as greater than four.
# (§6) 3.2.3 The data were processed by using Excel 2003 software for statistical analysis, and the obtained data were represented by mean±standard deviation (mean±SD). P<0.05 means that there is statistically significant difference between two groups.
# [2] = system: Wistar rats with dimethyl hydrazine-induced colorectal cancer; assay: Tumorigenesis and inhibition rate, drugs administrated from day 15 (Example 9); format: in vivo; settings: drugs from day 15
# Method: Example 1 was repeated, except that: The experimental animals were randomly divided into 11 groups, with 8 in each group. Except for the blank control group, other groups were subcutaneously injected of dimethylhydrazine once a week for 18 weeks to induce colorectal cancer model. Vitamin D3 was prepared into 10-100 U/ml solution by using soybean oil, and intragastrically administrated, once a day. Metformin was prepare into 10-100 mg/ml solution, and administrated orally, once a day. The above drugs were administrated from day 15 (after two weeks). During the experiments, tumorigenesis and inhibition rate were observed.
# [3] = system: Wistar rats with dimethyl hydrazine-induced colorectal cancer; assay: Tumorigenesis and tumor inhibition rate in dimethyl hydrazine-induced colorectal cancer rats (Example 1); format: in vivo; settings: for Mean number of tumors / Number of Animals with tumor: DMH rats; for Mean number of tumors / Number of Animals with tumor / Inhibition rate(%): week 18; for Number of Animals with tumor: of 10 animals; for Inhibition rate(%): tumor number vs model control
# Source text: as §1, §2, §3, §4, §5, §6
# [4] = General situation and body weight of the rats (Example 1); settings: DMH rats; for Weight gain: after 18 weeks; for Body weight Week 0: baseline
# Source text: as §2, §3, §4
# 3.2.1 The animals were observed daily to record the general conditions, such as mental activity, food-taking, feces, hair, and the like.
# [5] = high dose group, metformin hydrochloride 360 mg/kg intragastrically once a day
# [6] = low dose group, metformin hydrochloride 40 mg/kg intragastrically once a day
# [7] = medium dose group, metformin hydrochloride 120 mg/kg intragastrically once a day
# [8] = low, medium, high dose groups, end of week 18
# [9] = high dose group, Vitamin D 300 U/kg intragastrically once a day
# [10] = low dose group, Vitamin D 30 U/kg intragastrically once a day
# [11] = medium dose group, Vitamin D 100 U/kg intragastrically once a day
# [12] = medium dose group and high dose group, P<0.01
compound,measurement,setting,value
"CN(C)C(=N)N=C(N)N [metformin, metformin hydrochloride]",ACF AC = 1,[1]; [5],61.5 ± 8.1
same,ACF AC = 2,[1]; [5],13.8 ± 3.4
same,ACF AC = 3,[1]; [5],4.0 ± 1.2
same,ACF AC ≧ 4,[1]; [5],9.7 ± 3.2
same,The total number of ACF,[1]; [5],89.0 ± 12.7
same,ACF AC = 1,[1]; [6],70.4 ± 10.6
same,ACF AC = 2,[1]; [6],16.7 ± 3.6
same,ACF AC = 3,[1]; [6],6.7 ± 1.7
same,ACF AC ≧ 4,[1]; [6],16.5 ± 2.1
same,The total number of ACF,[1]; [6],110.3 ± 13.0
same,"inhibitory effect on ACF, trend with dose",[1],same trend
same,ACF AC = 1,[1]; [7],57.0 ± 10.7
same,ACF AC = 2,[1]; [7],16.6 ± 1.8
same,ACF AC = 3,[1]; [7],5.4 ± 1.6
same,ACF AC ≧ 4,[1]; [7],14.8 ± 3.0
same,The total number of ACF,[1]; [7],93.8 ± 11.7
same,"number of tumors, trend with dose",[2]; end of week 18,reduced with the increase of dose
same,Mean number of tumors,[3]; [5],1.6 ± 0.5
same,Mean number of tumors,[3]; [6],2.0 ± 0.7
same,"number of tumors, trend with dose",[3]; [8],reduced with the increase of dose
same,Mean number of tumors,[3]; [7],1.8 ± 0.4
same,Number of Animals with tumor,[3]; [5],10
same,Number of Animals with tumor,[3]; [6],10
same,Number of Animals with tumor,[3]; [7],10
same,Inhibition rate(%),[3]; [5],42.9%
same,Inhibition rate(%),[3]; [6],28.6%
same,Inhibition rate(%),[3]; [7],35.7%
"C=C1CC[C@H](O)C/C1=C/C=C1\CCC[C@]2(C)[C@@H]([C@H](C)CCCC(C)C)CC[C@@H]12 [vitamin D3, Vitamin D3]",ACF AC = 1,[1]; [9],61.8 ± 11.1
same,ACF AC = 2,[1]; [9],14.9 ± 5.9
same,ACF AC = 3,[1]; [9],5.0 ± 1.6
same,ACF AC ≧ 4,[1]; [9],9.8 ± 2.2
same,The total number of ACF,[1]; [9],91.5 ± 7.2
same,ACF AC = 1,[1]; [10],80.5 ± 7.6
same,ACF AC = 2,[1]; [10],16.1 ± 5.7
same,ACF AC = 3,[1]; [10],9.0 ± 2.3
same,ACF AC ≧ 4,[1]; [10],20.0 ± 4.1
same,The total number of ACF,[1]; [10],125.6 ± 12.1
same,"inhibitory effect on ACF, trend with dose",[1],increased with the increase of dose
same,ACF AC = 1,[1]; [11],67.9 ± 11.8
same,ACF AC = 2,[1]; [11],15.9 ± 5.7
same,ACF AC = 3,[1]; [11],4.8 ± 3.1
same,ACF AC ≧ 4,[1]; [11],16.1 ± 2.9
same,The total number of ACF,[1]; [11],104.7 ± 14.3
same,"inhibition rate for tumor, trend with dose",[2]; end of week 18,increased with the increased of dose
same,tumor number compared with the model control group,[2]; [12],significantly reduced
same,Weight gain,[4]; [9],225.7%
same,Weight gain,[4]; [10],227.7%
same,Weight gain,[4]; [11],235.7%
same,Body weight Week 18,[4]; [9],328.8 ± 23.6
same,Body weight Week 0,[4]; [9],101.5 ± 5.2
same,Body weight Week 18,[4]; [10],377.5 ± 27.5
same,Body weight Week 0,[4]; [10],100.3 ± 4.1
same,Body weight Week 18,[4]; [11],294.3 ± 22.1
same,Body weight Week 0,[4]; [11],102.9 ± 5.8
same,Mean number of tumors,[3]; [9],1.4 ± 0.8
same,Mean number of tumors,[3]; [10],2.3 ± 0.5
same,"inhibition rate for tumor, trend with dose",[3]; [8],increased with the increase of dose
same,number of tumors compared with the model control group,[3]; [12],significantly reduced
same,Mean number of tumors,[3]; [11],1.7 ± 0.7
same,Number of Animals with tumor,[3]; [9],8
same,Number of Animals with tumor,[3]; [10],10
same,Number of Animals with tumor,[3]; [11],10
same,Inhibition rate(%),[3]; [9],50.0%
same,Inhibition rate(%),[3]; [10],17.9%
same,Inhibition rate(%),[3]; [11],39.3%
